Measured values published in patent publication US20230293517A1, “ANTAGONIST COMPOUNDS” (AdoRx Therapeutics Limited, priority 2020, published 2023).

Columns and labels:
[1] = molecular target: human Adenosine A1 receptor (Homo sapiens (Human), UniProt P30542); test: Adenosine receptor TR-FRET binding assay (A1); conditions: inhibition of binding of 100 nM CA200645, CHO cell membranes
Procedure, shortened: (§1)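 In this homogeneous assay, test compounds compete with tracer CA200645 for Tb-labelled human adenosine receptors expressed in CHO cell membranes over 2 h at room temperature. Tracer levels differ by subtype: 30 nM for A2b, 100 nM for A1, A2a and A3. Specific FRET signal yields IC50, converted to Ki.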

[2] = system: immature monocyte-derived dendritic cells (MoDC); test: MoDC pCREB assay; format: cell-based, human; conditions: Homo sapiens, Dendritic cell; pCREB in immature MoDC, 1 μM NECA, rolipram
Method: Monocytes are isolated from human whole blood using CD14 microbeads (Miltenyi Biotec 130-050-201) and differentiated to immature monocyte-derived dendritic cells (MoDC) by culture for 5 days in Mo-DC Differentiation Medium (Miltenyi Biotec 130-094-812). MoDCs are seeded into fresh medium into U bottomed 96 well culture plates and pre-incubated at 37° C. with serial dilutions of A2A/B antagonists for 15 min. At the same time the cells are co-incubated with the phosphodiesterase inhibitor rolipram (final concentration of 20 µM) to amplify the subsequent pCREB response. Adenosine receptor agonist NECA is then added at 1 μM final concentration, leading to an increase in CREB phosphorylation. Following a 45 min incubation at 37° C., the cells are fixed, permeabilized and stained with directly conjugated fluorescent antibodies to phospho-CREB (Alexa Fluor 488), CD209 (PerCP-Cy5.5) and CD86 (APC). Samples are analysed by FACS to measure fluorescence in corresponding channels, and also forward and Side scatter. The population of CD209+/CD86− low cells corresponding to immature dendritic cells is gated for analysis of pCREB levels.
Approximately 5% of the analysed cells are positive for detection of pCREB in the absence of agonist stimulation, representing the background signalling of all pathways upstream of CREB. Following NECA stimulation this is increased to ˜80% pCREB+ve, and this increase is essentially fully reversible by A2B or dual A2A/B antagonists.
IC50 is represented as the point of inflection of a sigmoidal curve

[3] = system: human PBMCs; test: CD3/CD28 stimulated IL-2 release NECA reversal assay in human PBMCs; format: cell-based; conditions: PBMC, 1 uM NECA, 24 hours, IL-2 in culture supernatant
Procedure, shortened: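 PBMCs from citrated healthy-donor blood plated at 50,000 cells/well on 1 ug/ml CD3 antibody with 1 ug/ml CD28 antibody, 1 uM NECA and 0.003-10 μM antagonist (final), 24 h at 37° C. Supernatant IL-2 measured by MSD immunoassay; % inhibition set against no-NECA control wells as 100%.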

[4] = molecular target: human Adenosine A3 receptor (Homo sapiens (Human), UniProt P0DMS8); test: Adenosine receptor TR-FRET binding assay (A3); conditions: inhibition of binding of 100 nM CA200645, CHO cell membranes
human Adenosine A3 receptor, sequence (P0DMS8 whole entry): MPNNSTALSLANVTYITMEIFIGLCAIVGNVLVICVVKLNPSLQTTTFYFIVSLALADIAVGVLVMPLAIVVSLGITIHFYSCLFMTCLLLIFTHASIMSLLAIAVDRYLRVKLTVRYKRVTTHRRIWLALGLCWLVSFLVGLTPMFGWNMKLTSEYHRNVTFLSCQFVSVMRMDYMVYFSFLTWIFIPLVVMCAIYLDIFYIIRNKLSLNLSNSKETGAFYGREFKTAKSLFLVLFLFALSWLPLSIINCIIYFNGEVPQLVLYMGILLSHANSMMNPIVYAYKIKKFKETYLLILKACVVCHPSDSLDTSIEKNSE
Procedure, shortened: as §1

[5] = system: CD8+T cells in human whole blood; test: Measurement of pCREB in CD8+T cells in human whole blood; format: cell-based; conditions: 3 μM NECA, rolipram
Procedure, shortened: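 Heparinised human whole blood pre-incubated 20 min at 37 °C with serially diluted A2a antagonists plus rolipram, then stimulated 60 min with 3 μM NECA (final). After fixation and red-cell lysis, white cells were permeabilized and stained for phospho-CREB and CD8; pCREB in CD8+ T cells measured by flow cytometry.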

[6] = molecular target: human Adenosine A2a receptor (Homo sapiens (Human), UniProt P29274); test: Adenosine receptor TR-FRET binding assay (A2a); conditions: inhibition of binding of 100 nM CA200645, CHO cell membranes
human Adenosine A2a receptor, sequence (P29274 whole entry): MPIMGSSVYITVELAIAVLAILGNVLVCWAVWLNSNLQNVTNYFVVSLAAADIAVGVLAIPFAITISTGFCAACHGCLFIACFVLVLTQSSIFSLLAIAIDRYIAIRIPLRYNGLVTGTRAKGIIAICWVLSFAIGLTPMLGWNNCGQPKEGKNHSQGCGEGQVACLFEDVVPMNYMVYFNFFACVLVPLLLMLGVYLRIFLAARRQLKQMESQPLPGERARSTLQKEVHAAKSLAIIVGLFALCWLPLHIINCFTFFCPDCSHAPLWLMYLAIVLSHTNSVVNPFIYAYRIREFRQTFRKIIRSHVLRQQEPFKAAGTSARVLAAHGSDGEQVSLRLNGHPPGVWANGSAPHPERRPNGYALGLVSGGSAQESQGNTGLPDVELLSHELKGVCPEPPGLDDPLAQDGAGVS
Procedure, shortened: as §1

[7] = molecular target: human Adenosine A2b receptor (Homo sapiens (Human), UniProt P29275); test: Adenosine receptor TR-FRET binding assay (A2b); conditions: TR-FRET, inhibition of binding of 30 nM CA200645, CHO cell membranes
human Adenosine A2b receptor, sequence (P29275 whole entry): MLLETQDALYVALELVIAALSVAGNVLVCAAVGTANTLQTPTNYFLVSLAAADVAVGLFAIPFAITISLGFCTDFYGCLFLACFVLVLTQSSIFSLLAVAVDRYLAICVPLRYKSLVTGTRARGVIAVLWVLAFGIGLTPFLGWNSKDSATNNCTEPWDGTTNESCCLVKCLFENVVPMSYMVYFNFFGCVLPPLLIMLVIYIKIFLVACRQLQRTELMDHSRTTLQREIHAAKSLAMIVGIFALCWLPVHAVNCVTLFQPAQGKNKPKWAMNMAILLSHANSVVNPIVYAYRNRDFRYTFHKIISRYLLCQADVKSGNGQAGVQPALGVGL
Procedure, shortened: as §1

human Adenosine A1 receptor, sequence (P30542 whole entry): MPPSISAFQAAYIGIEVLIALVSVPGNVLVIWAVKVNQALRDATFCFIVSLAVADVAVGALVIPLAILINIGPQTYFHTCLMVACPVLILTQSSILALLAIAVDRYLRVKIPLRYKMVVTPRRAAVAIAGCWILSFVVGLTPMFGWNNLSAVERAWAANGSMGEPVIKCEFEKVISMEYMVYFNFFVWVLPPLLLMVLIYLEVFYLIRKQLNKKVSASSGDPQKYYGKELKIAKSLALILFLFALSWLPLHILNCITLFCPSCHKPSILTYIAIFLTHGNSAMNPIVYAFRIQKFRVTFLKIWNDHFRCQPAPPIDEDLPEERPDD

| SMILES | Ki [1] [nM] | IC50 [2] [nM] | IC50 [3] [nM] | Ki [4] [nM] | IC50 [5] [nM] | Ki [6] [nM] | Ki [7] [nM] |
| --- | --- | --- | --- | --- | --- | --- | --- |
| Cc1cc(-c2sc(NC(=O)N3CCN(C)CC3)nc2-c2cccc(C#N)c2)cc(Cl)n1 [Example 3.6] | 88 | 51 | 7.5 | 481 | 990 | 0.64 | 1.5 |
| Cc1cc(-c2sc(NC(=O)N3CCC(C)(C#N)CC3)nc2-c2cccc(C#N)c2)cc(Cl)n1 [Example 3.8] | 116 | 11 | 1 | 538 | 750 | 0.09 | 0.9 |
| Cc1cc(-c2sc(NC(=O)N3CCC(C#N)CC3)nc2-c2cccc(C#N)c2)cc(C)n1 [Example 4.1, 4-Cyano-N-[4-(3-cyanophenyl)-5-(2,6-dimethyl-4-pyridyl)thiazol-2-yl]piperidine-1-carboxamide] | 11 | 15 | 0.3 | 145 | 10 | 0.11 | 0.6 |
| Cc1cc(-c2sc(NC(=O)N3CCN(C4COC4)CC3)nc2-c2cccc(C#N)c2)cc(C)n1 [Example 4.4, N-[4-(3-Cyanophenyl)-5-(2,6-dimethyl-4-pyridyl)thiazol-2-yl]-4-(oxetan-3-yl)piperazine-1-carboxamide] | 263 | 95 | 6.2 | 568 | 170 | 0.86 | 4.5 |
| Cc1cc(-c2sc(NC(=O)N3CC[C@H](C#N)C3)nc2-c2cccc(C#N)c2)cc(C)n1 [Example 4.8, (3S)-3-Cyano-N-[4-(3-cyanophenyl)-5-(2,6-dimethyl-4-pyridyl)thiazol-2-yl]pyrrolidine-1-carboxamide] | 17 | 12 | 1.1 | 180 | 40 | 0.37 | 1.5 |
| Cc1cc(-c2sc(NC(=O)N3CC(C)(O)C3)nc2-c2cccc(C#N)c2)cc(C)n1 [Example 4.9, N-[4-(3-Cyanophenyl)-5-(2,6-dimethyl-4-pyridyl)thiazol-2-yl]-3-hydroxy-3-methyl-azetidine-1-carboxamide] | 9 | 26 | 3.2 | 133 | 50 | 0.14 | 1.5 |
| Cc1cc(-c2sc(NC(=O)N3CC4(COC4)C3)nc2-c2cccc(C#N)c2)cc(C)n1 [Example 4.12, N-[4-(3-Cyanophenyl)-5-(2,6-dimethyl-4-pyridyl)thiazol-2-yl]-2-oxa-6-azaspiro[3.3]heptane-6-carboxamide] | 31 | 18 | 2 | 389 | 50 | 0.26 | 1.1 |
| COC1(C#N)CCN(C(=O)Nc2nc(-c3cccc(C#N)c3)c(-c3cc(C)nc(C)c3)s2)CC1 [Example 4.22, 4-Cyano-N-[4-(3-cyanophenyl)-5-(2,6-dimethyl-4-pyridyl)thiazol-2-yl]-4-methoxy-piperidine-1-carboxamide] | 35 | 11 | 1.1 | 165 | 110 | 0.1 | 0.9 |
| Cc1cc(-c2sc(NC(=O)N3CCC(C#N)(CO)CC3)nc2-c2cccc(C#N)c2)cc(C)n1 [Example 4.23, 4-Cyano-N-[4-(3-cyanophenyl)-5-(2,6-dimethyl-4-pyridyl)thiazol-2-yl]-4-(hydroxymethyl)piperidine-1-carboxamide] | 54 | 20 | 0.6 | 267 | 30 | 0.2 | 0.7 |
| Cc1cc(-c2sc(NC(=O)N3CCC4(CC3)CNC(=O)O4)nc2-c2cccc(C#N)c2)cc(C)n1 [Example 6.56, N-[4-(3-Cyanophenyl)-5-(2,6-dimethyl-4-pyridyl)thiazol-2-yl]-2-oxo-1-oxa-3,8-diazaspiro[4.5]decane-8-carboxamide] | – | 7 | 3.5 | – | 70 | – | – |
| Cc1cc(-c2sc(NC(=O)N3CC(C)(C#N)C3)nc2-c2cccc(C#N)c2)c(F)c(C)n1 [Example 6.68, 3-Cyano-N-[4-(3-cyanophenyl)-5-(3-fluoro-2,6-dimethyl-4-pyridyl)thiazol-2-yl]-3-methyl-azetidine-1-carboxamide] | – | 3 | 3.1 | – | 50 | – | – |
| Cc1cc(-c2sc(NC(=O)N3CCC4(CC3)CNC4=O)nc2-c2cccc(C#N)c2)c(F)c(C)n1 [Example 6.69, N-[4-(3-Cyanophenyl)-5-(3-fluoro-2,6-dimethyl-4-pyridyl)thiazol-2-yl]-3-oxo-2,7-diazaspiro[3.5]nonane-7-carboxamide] | – | 3 | 10.9 | – | 430 | – | – |
| Cc1cc(-c2sc(NC(=O)N3CC4(COC4)C3)nc2-c2cccc(C#N)c2C)cc(C)n1 [Example 6.79, N-[4-(3-Cyano-2-methyl-phenyl)-5-(2,6-dimethyl-4-pyridyl)thiazol-2-yl]-2-oxa-6-azaspiro[3.3]heptane-6-carboxamide] | – | 83 | 14.5 | – | 350 | – | – |
| Cc1cc(-c2sc(NC(=O)N3CC4(COC4)C3)nc2-c2cccc(C#N)c2)cc(C(F)F)n1 [Example 6.97, N-[4-(3-Cyanophenyl)-5-[2-(difluoromethyl)-6-methyl-4-pyridyl]thiazol-2-yl]-2-oxa-6-azaspiro[3.3]heptane-6-carboxamide] | 17 | 13 | – | 250 | 50 | 0.23 | 1.1 |
| Cc1cc(-c2sc(NC(=O)N3CCC4(CNCCO4)C3)nc2-c2cccc(C#N)c2)cc(C)n1 (stereo not drawn) [Example 13.12, N-[4-(3-Cyanophenyl)-5-(2,6-dimethyl-4-pyridyl)thiazol-2-yl]-6-oxa-2,9-diazaspiro[4.5]decane-2-carboxamide] | 41 | 73 | – | 426 | 70 | 0.84 | 4.6 |
| COCc1cc(-c2sc(NC(=O)N3CC4(COC4)C3)nc2-c2cccc(C#N)c2)cc(C)n1 [Example 21, N-[4-(3-Cyanophenyl)-5-[2-(methoxymethyl)-6-methyl-4-pyridyl]thiazol-2-yl]-2-oxa-6-azaspiro[3.3]heptane-6-carboxamide] | 29 | 19 | – | 1560 | 20 | 0.21 | 3.9 |
| CC(C)(O)c1cc(-c2sc(NC(=O)N3CC4(COC4)C3)nc2-c2cccc(C#N)c2)cc(Cl)n1 [Example 23, N-[5-[2-Chloro-6-(1-hydroxy-1-methyl-ethyl)-4-pyridyl]-4-(3-cyanophenyl)thiazol-2-yl]-2-oxa-6-azaspiro[3.3]heptane-6-carboxamide] | 9 | 182 | – | 1840 | 20 | 0.16 | 5.7 |
| N#Cc1cccc(-c2nc(NC(=O)N3CC4(COC4)C3)sc2-c2cc(CO)nc(C(F)(F)F)c2)c1 [Example 26, N-[4-(3-Cyanophenyl)-5-[2-(hydroxymethyl)-6-(trifluoromethyl)-4-pyridyl]thiazol-2-yl]-2-oxa-6-azaspiro[3.3]heptane-6-carboxamide] | 38 | 17 | – | 456 | 50 | 0.24 | 1.2 |
| Cc1cc(-c2sc(NC(=O)N3CC[C@@](C)(C#N)C3)nc2-c2cccc(C#N)c2)cc(C)n1 [Example 27a, (3R)-3-Cyano-N-[4-(3-cyanophenyl)-5-(2,6-dimethyl-4-pyridyl)thiazol-2-yl]-3-methyl-pyrrolidine-1-carboxamide] | 37 | 10 | – | 313 | 80 | 0.54 | 1.2 |
